# Assays:
# [1] = biological target: T1, 5-hydroxytryptamine receptor 1A (Homo sapiens, UniProt P08908); assay: Displacement of [3H]8-OH-DPAT from human 5-HT1A receptor expressed in HEK293 cell membranes after 1 hr
# T1 sequence (P08908 whole entry): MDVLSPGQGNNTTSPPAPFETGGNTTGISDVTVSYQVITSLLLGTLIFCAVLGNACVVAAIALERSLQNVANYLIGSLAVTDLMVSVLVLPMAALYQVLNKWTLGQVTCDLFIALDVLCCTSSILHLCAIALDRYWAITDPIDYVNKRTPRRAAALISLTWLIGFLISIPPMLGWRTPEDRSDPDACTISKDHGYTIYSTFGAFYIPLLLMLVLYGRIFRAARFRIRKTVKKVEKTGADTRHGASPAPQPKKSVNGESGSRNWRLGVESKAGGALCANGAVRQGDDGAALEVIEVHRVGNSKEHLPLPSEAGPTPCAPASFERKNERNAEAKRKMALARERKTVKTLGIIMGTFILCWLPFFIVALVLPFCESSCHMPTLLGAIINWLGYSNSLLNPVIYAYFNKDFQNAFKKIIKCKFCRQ
# [2] = test system: Mus musculus; assay: Antidepressant-like activity in ip dosed Albino Swiss CD-1 mouse assessed as decrease in immobility time administered […] prior to test measured for last 4 mins of 6 mins observation by forced swim test (reference value: 153.9 to 201.9 secs); assay type: functional
# [3] = biological target: 5-hydroxytryptamine receptor 2A (Homo sapiens, UniProt P28223); assay: Displacement of [3H]-ketanserin from recombinant human 5-HT2A receptor after 60 mins by liquid scintillation counting method
# [4] = biological target: 5-hydroxytryptamine receptor 7 (Homo sapiens, UniProt P34969); assay: Displacement of [3H]-LSD from recombinant human 5-HT7 receptor after 60 mins by liquid scintillation counting method
# [5] = biological target: T2, Adrenergic receptor alpha-2 (Rattus norvegicus, UniProt P22086+P19328+P22909); assay: Displacement of [3H]clonidine from rat cerebral cortex adrenergic receptor alpha2 by liquid scintillation counting method
# T2 sequence (P22086 whole entry): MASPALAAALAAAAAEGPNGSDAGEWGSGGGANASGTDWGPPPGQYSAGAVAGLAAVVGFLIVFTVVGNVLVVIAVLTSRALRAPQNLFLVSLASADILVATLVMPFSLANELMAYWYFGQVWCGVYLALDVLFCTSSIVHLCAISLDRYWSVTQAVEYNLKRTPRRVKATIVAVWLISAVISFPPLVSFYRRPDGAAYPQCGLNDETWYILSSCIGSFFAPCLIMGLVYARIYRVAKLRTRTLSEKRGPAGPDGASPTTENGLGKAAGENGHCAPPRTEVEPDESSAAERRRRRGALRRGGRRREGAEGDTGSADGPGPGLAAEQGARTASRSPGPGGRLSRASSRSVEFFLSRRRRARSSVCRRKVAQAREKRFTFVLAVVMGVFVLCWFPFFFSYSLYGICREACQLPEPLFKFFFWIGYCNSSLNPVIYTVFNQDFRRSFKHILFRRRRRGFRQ
# T2 sequence (P19328 whole entry): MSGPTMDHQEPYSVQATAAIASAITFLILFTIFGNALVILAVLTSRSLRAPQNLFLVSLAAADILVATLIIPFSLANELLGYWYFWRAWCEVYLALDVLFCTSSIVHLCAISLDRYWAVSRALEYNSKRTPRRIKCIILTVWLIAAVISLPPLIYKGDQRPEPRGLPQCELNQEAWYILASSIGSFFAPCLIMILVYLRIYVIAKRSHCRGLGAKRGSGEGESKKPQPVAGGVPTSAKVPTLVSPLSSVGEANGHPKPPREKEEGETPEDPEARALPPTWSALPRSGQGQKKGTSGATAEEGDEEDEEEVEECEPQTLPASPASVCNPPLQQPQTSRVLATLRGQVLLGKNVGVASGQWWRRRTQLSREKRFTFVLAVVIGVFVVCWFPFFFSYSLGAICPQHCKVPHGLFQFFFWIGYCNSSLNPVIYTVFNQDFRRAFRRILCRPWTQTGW
# T2 sequence (P22909 whole entry): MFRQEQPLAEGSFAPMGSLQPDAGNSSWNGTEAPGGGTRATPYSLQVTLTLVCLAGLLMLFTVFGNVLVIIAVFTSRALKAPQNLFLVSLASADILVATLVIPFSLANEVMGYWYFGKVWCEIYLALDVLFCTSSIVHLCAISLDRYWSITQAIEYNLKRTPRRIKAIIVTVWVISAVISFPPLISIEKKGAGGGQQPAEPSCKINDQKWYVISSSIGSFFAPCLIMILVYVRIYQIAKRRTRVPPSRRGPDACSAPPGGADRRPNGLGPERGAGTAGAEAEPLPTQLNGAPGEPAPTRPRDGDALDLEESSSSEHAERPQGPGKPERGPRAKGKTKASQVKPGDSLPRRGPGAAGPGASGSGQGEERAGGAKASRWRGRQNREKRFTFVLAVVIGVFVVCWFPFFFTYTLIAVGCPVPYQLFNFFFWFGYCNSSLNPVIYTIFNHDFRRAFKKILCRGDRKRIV
# [6] = biological target: T3, 5-hydroxytryptamine receptor 1A (Rattus norvegicus, UniProt P19327); assay: Displacement of [3H]8-OH-DPAT from Wistar rat 5-HT1A receptor after 20 mins by liquid scintillation counting method
# T3 sequence (P19327 whole entry): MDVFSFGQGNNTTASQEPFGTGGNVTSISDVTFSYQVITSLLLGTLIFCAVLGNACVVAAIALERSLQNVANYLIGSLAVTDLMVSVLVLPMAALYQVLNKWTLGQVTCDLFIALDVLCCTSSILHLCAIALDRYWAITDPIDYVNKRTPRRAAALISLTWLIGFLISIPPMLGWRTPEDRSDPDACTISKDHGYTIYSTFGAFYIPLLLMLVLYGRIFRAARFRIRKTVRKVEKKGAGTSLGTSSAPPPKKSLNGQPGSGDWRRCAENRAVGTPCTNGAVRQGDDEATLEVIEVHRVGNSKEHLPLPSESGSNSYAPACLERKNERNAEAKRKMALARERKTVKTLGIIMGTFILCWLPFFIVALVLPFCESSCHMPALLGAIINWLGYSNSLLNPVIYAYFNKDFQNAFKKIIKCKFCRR
# Chain of 5-hydroxytryptamine receptor 2A (P28223 whole entry): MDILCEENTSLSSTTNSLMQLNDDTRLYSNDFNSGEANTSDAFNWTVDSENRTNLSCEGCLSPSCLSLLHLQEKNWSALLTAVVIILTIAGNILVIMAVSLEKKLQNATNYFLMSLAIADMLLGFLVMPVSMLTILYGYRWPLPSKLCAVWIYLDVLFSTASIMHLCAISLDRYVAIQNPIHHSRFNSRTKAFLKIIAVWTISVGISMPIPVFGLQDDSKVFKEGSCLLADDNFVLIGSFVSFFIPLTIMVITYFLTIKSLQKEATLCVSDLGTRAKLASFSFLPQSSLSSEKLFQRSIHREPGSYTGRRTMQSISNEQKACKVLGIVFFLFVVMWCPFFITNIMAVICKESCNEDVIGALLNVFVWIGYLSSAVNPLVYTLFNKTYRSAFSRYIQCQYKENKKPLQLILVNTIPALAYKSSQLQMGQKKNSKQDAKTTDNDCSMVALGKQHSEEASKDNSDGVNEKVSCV
# Chain of 5-hydroxytryptamine receptor 7 (P34969 whole entry): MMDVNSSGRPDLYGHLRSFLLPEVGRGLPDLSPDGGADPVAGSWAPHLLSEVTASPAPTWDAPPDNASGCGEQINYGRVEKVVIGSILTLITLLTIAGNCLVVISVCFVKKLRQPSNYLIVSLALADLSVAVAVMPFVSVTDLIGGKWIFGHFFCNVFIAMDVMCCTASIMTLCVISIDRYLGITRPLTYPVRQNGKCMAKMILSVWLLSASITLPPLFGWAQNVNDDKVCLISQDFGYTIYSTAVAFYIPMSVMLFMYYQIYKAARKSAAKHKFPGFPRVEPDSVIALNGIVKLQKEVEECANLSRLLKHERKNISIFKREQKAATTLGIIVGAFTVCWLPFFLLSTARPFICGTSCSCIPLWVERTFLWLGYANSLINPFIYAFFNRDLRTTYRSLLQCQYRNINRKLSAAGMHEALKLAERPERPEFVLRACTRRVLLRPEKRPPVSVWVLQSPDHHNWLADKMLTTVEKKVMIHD
Ki [1] [nM],Ki [3] [nM],Ki [4] [nM],Ki [5] [nM],Ki [6] [nM],SMILES,ED [2] [mg/kg]
< 1,2830,,,,COc1ccccc1N1CCN(CCCOc2c(C)cc(C)cc2C)CC1.Cl,5
,192,26,341,0.7,COc1ccccc1N1CCN(CCCOc2c(C)cccc2C)CC1.Cl,

# — ChEMBL document CHEMBL4190389, “Synthesis and activity of di- or trisubstituted N-(phenoxyalkyl)- or N-{2-[2-(phenoxy)ethoxy]ethyl}piperazine derivatives on the central nervous system” (Bioorg Med Chem Lett, 2018)
